Test results as given in PubChem BioAssay (NCI).
Values joined by “and” are separate entries in the source; they are usually repeats but may differ in a detail not shown here. Identical values can stand only once.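 In this assay, cells in 96-well plates receive the compound at five concentrations for 48 hours. Endpoints are linearly interpolated between the surrounding concentrations. Abbreviation: GI50, concentration required for 50% inhibition of growth. The concentration for full growth arrest is given as TGI.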

Columns and labels:
Test in all cases: growth of human tumour cells (NCI), 48 h
M14 melanoma = system: M14 melanoma
K-562 leukemia = system: K-562 leukemia
NCI-H460 lung = system: NCI-H460 lung
SF-268 CNS = system: SF-268 CNS
HCC-2998 colon = system: HCC-2998 colon
SK-MEL-5 melanoma = system: SK-MEL-5 melanoma
HL-60(TB) leukemia = system: HL-60(TB) leukemia
KM12 colon = system: KM12 colon
UACC-62 melanoma = system: UACC-62 melanoma
MALME-3M melanoma = system: MALME-3M melanoma

## COc1ccc(C(=CCC(C)C2CCC3[C@@H]4C(OC(C)=O)CC5CC(OC(C)=O)CC[C@]5(C)C4CC(OC(C)=O)[C@]23C)c2ccc(OC)cc2)cc1 (stereo partly specified)
M14 melanoma
  TGI: > 100 µM
K-562 leukemia
  TGI: > 100 µM
NCI-H460 lung
  TGI: > 100 µM
SF-268 CNS
  TGI: > 100 µM
HCC-2998 colon
  TGI: > 100 µM
SK-MEL-5 melanoma
  TGI: > 100 µM
HL-60(TB) leukemia
  TGI: 45.3 µM
KM12 colon
  TGI: > 100 µM

## CCCC(O)[C@@]1(CC)CC(C)C(O)(C2(C)C[C@H](C)[C@@H](C(CC)C(=O)C(C)[C@@H](O)[C@H](C)C3OC(O)(C(CC)C(=O)O)[C@@H](C)C(O)C3CC)O2)O1 (stereo partly specified)
M14 melanoma
  TGI: 2.15 µM
NCI-H460 lung
  TGI: 2.14 µM
SF-268 CNS
  TGI: 2.21 µM
UACC-62 melanoma
  TGI: 2.86 µM
MALME-3M melanoma
  TGI: 0.392 µM
HCC-2998 colon
  TGI: 1.49 µM
SK-MEL-5 melanoma
  TGI: 1.18 µM
HL-60(TB) leukemia
  TGI: 0.233 µM
KM12 colon
  TGI: 2.06 µM

## Nc1nc(-c2ccccc2)c(CC(=O)O)s1
M14 melanoma
  TGI: > 100 µM
K-562 leukemia
  TGI: > 100 µM
NCI-H460 lung
  TGI: > 100 µM
SF-268 CNS
  TGI: > 100 µM
UACC-62 melanoma
  TGI: > 100 µM
MALME-3M melanoma
  TGI: > 100 µM
SK-MEL-5 melanoma
  TGI: > 100 µM
HL-60(TB) leukemia
  TGI: 83.1 µM
KM12 colon
  TGI: > 100 µM

## Cc1ccc(-n2nc(C(OC3OC(CO)C(O)C(O)C3O)C(O)CO)c3nc4cc(C)c(C)cc4nc32)cc1 (stereo unspecified)
M14 melanoma
  TGI: > 100 µM
K-562 leukemia
  TGI: > 100 µM
NCI-H460 lung
  TGI: > 100 µM
SF-268 CNS
  TGI: > 100 µM
UACC-62 melanoma
  TGI: > 100 µM
MALME-3M melanoma
  TGI: > 100 µM
HCC-2998 colon
  TGI: > 100 µM
KM12 colon
  TGI: > 100 µM

## Cc1nc2ccncc2[nH]1
M14 melanoma
  TGI: > 100 µM
K-562 leukemia
  TGI: > 100 µM
NCI-H460 lung
  TGI: > 100 µM
SF-268 CNS
  TGI: > 100 µM
UACC-62 melanoma
  TGI: > 100 µM
MALME-3M melanoma
  TGI: > 100 µM
HCC-2998 colon
  TGI: > 100 µM
SK-MEL-5 melanoma
  TGI: > 100 µM
HL-60(TB) leukemia
  TGI: > 100 µM

## O=C(O)c1ccccc1NCn1nc(-c2ccccc2O)oc1=S
M14 melanoma
  GI50: 46.3 µM
  TGI: > 100 µM
K-562 leukemia
  GI50: 70.9 µM
  TGI: > 100 µM
NCI-H460 lung
  GI50: 39.5 µM
  TGI: > 100 µM
SF-268 CNS
  GI50: 80.9 µM
  TGI: > 100 µM
UACC-62 melanoma
  GI50: 33.7 µM
  TGI: 92.3 µM
HCC-2998 colon
  GI50: 33.7 µM
  TGI: 86.7 µM
SK-MEL-5 melanoma
  GI50: 73.4 µM
  TGI: > 100 µM
HL-60(TB) leukemia
  GI50: 64.9 µM
  TGI: > 100 µM
KM12 colon
  GI50: > 100 µM
  TGI: > 100 µM

## CCOC(=O)c1cn(C)c2c(OC)c3ccccc3c(OC)c2c1=O
M14 melanoma
  GI50: 19.8 µM
  TGI: 45 µM
K-562 leukemia
  GI50: 36.4 µM
  TGI: > 100 µM
NCI-H460 lung
  GI50: 32.1 µM
  TGI: > 100 µM
SF-268 CNS
  GI50: 20.1 µM
  TGI: 74.9 µM
UACC-62 melanoma
  GI50: 19.5 µM
  TGI: 36.4 µM
MALME-3M melanoma
  GI50: 8.95 µM
  TGI: 30.3 µM
HL-60(TB) leukemia
  GI50: 35.9 µM
  TGI: > 100 µM
KM12 colon
  GI50: 19.7 µM
  TGI: 48.3 µM

## COc1ccccc1/C=C(\NC(=O)c1ccccc1)c1nc2ccc(Cl)cc2[nH]1
M14 melanoma
  TGI: > 100 µM
K-562 leukemia
  TGI: > 100 µM
NCI-H460 lung
  TGI: > 100 µM
SF-268 CNS
  TGI: > 100 µM
UACC-62 melanoma
  TGI: 55.3 µM
MALME-3M melanoma
  TGI: > 100 µM
SK-MEL-5 melanoma
  TGI: 33.7 µM
KM12 colon
  TGI: > 100 µM

## COc1ccc(N(CC(=O)O)N=O)cc1
M14 melanoma
  TGI: > 100 µM
K-562 leukemia
  TGI: > 100 µM
NCI-H460 lung
  TGI: > 100 µM
SF-268 CNS
  TGI: > 100 µM
UACC-62 melanoma
  TGI: > 100 µM
MALME-3M melanoma
  TGI: > 100 µM
SK-MEL-5 melanoma
  TGI: > 100 µM
HL-60(TB) leukemia
  TGI: > 100 µM
KM12 colon
  TGI: > 100 µM

## CO[C@H]1C(=O)[C@]2(C)[C@@H](OC)C[C@H]3OC[C@@]3(OC(C)=O)[C@H]2[C@H](OC(=O)c2ccccc2)[C@]2(O)C[C@H](OC(=O)[C@H](O)[C@@H](NC(=O)OC(C)(C)C)c3ccccc3)C(C)=C1C2(C)C
M14 melanoma
  GI50: < 0.01 µM
  TGI: 17.8 µM
K-562 leukemia
  GI50: < 0.01 µM
  TGI: > 100 µM
NCI-H460 lung
  GI50: < 0.01 µM
  TGI: 13 µM
SF-268 CNS
  GI50: < 0.01 µM
  TGI: 68.6 µM
UACC-62 melanoma
  GI50: < 0.0147 µM
  TGI: 56.8 µM
HCC-2998 colon
  GI50: < 0.01 µM
  TGI: < 0.0168 µM
SK-MEL-5 melanoma
  GI50: < 0.01 µM
  TGI: 17.3 µM
HL-60(TB) leukemia
  GI50: < 0.01 µM
  TGI: < 0.01 µM
KM12 colon
  GI50: < 0.01 µM
  TGI: 22.4 µM

## O=C1C=CC2(CCC23C=CC(=O)O3)O1 (stereo unspecified)
M14 melanoma
  TGI: > 100 µM
K-562 leukemia
  TGI: > 100 µM
NCI-H460 lung
  TGI: > 100 µM
SF-268 CNS
  TGI: > 100 µM
UACC-62 melanoma
  TGI: > 100 µM
MALME-3M melanoma
  TGI: > 100 µM
HCC-2998 colon
  TGI: > 100 µM
HL-60(TB) leukemia
  TGI: > 100 µM
KM12 colon
  TGI: > 100 µM

## COc1ccc([C@@]23Oc4cc(OC)cc(OC)c4[C@]2(O)[C@H](O)[C@H](C(=O)N(C)C)[C@H]3c2ccccc2)cc1
M14 melanoma
  TGI: 0.014 µM
K-562 leukemia
  GI50: 0.00334 µM
  TGI: 25 µM and > 100 µM
SF-268 CNS
  GI50: 0.0152 µM
UACC-62 melanoma
  GI50: 0.0243 µM
MALME-3M melanoma
  GI50: 0.0142 µM
HCC-2998 colon
  TGI: 0.0615 µM and 0.224 µM
SK-MEL-5 melanoma
  GI50: 0.0227 µM
  TGI: 0.0144 µM and 0.139 µM
KM12 colon
  TGI: 0.0892 µM and 0.281 µM

## NC1=NC(c2ccccc2Cl)c2c(n[nH]c2N)N1 (stereo unspecified)
M14 melanoma
  GI50: 18.1 µM
  TGI: > 100 µM
K-562 leukemia
  GI50: 4.52 µM
  TGI: > 100 µM
NCI-H460 lung
  GI50: 5.9 µM
  TGI: > 100 µM
SF-268 CNS
  GI50: 26.9 µM
  TGI: > 100 µM
UACC-62 melanoma
  GI50: 13.5 µM
  TGI: > 100 µM
MALME-3M melanoma
  GI50: 61.3 µM
  TGI: > 100 µM
HCC-2998 colon
  GI50: 65 µM
  TGI: > 100 µM
SK-MEL-5 melanoma
  GI50: 29.2 µM
  TGI: > 100 µM
KM12 colon
  GI50: 29.4 µM
  TGI: > 100 µM

## O=C(CI)NC(=O)NC(=O)NCc1ccccc1
M14 melanoma
  GI50: 2.89 µM
  TGI: 10.8 µM
K-562 leukemia
  GI50: 1.16 µM
  TGI: 4.05 µM
NCI-H460 lung
  GI50: 5.3 µM
  TGI: 23.4 µM
SF-268 CNS
  GI50: 4.4 µM
  TGI: 21.6 µM
UACC-62 melanoma
  GI50: 3.82 µM
  TGI: 14.6 µM
MALME-3M melanoma
  GI50: 1.57 µM
  TGI: 3.52 µM
HCC-2998 colon
  GI50: 10.4 µM
  TGI: 22.9 µM
SK-MEL-5 melanoma
  GI50: 4.73 µM
  TGI: 15.9 µM
KM12 colon
  GI50: 10.9 µM
  TGI: 24.9 µM

## Cc1ccc(S(=O)(=O)Nc2ccccc2C(C)(C)C)cc1
K-562 leukemia
  TGI: 50.1 µM
NCI-H460 lung
  TGI: 42.2 µM
UACC-62 melanoma
  TGI: 44.4 µM
MALME-3M melanoma
  TGI: 89.1 µM
HCC-2998 colon
  TGI: > 100 µM
SK-MEL-5 melanoma
  TGI: 29.8 µM
HL-60(TB) leukemia
  TGI: 44.7 µM
KM12 colon
  TGI: 47.1 µM

## C/C(=C/CCC(C)[C@@H]1CC[C@]2(C)C3=C(CC[C@@]12C)[C@@]1(C)CCC(=O)C(C)(C)[C@@H]1CC3)C(=O)O (stereo partly specified)
M14 melanoma
  GI50: 1.1 µM
  TGI: 2.64 µM
NCI-H460 lung
  GI50: 1.28 µM
  TGI: 4.02 µM
SF-268 CNS
  GI50: 1.47 µM
  TGI: 3.08 µM
UACC-62 melanoma
  GI50: 0.469 µM
  TGI: 1.76 µM
MALME-3M melanoma
  GI50: 1.66 µM
  TGI: 3.5 µM
HCC-2998 colon
  GI50: 1.1 µM
  TGI: 2.44 µM
SK-MEL-5 melanoma
  GI50: 1.07 µM
  TGI: 2.44 µM
HL-60(TB) leukemia
  GI50: 0.855 µM
  TGI: 2.32 µM
KM12 colon
  GI50: 0.747 µM
  TGI: 2.3 µM

## COc1cc([C@@H]2c3cc4c(cc3[C@H](SC(=N)N)[C@H]3COC(=O)[C@H]23)OCO4)cc(OC)c1OC
M14 melanoma
  GI50: 0.288 µM
  TGI: > 100 µM
K-562 leukemia
  GI50: 0.14 µM
  TGI: > 100 µM
NCI-H460 lung
  GI50: 0.294 µM
  TGI: 56.1 µM
SF-268 CNS
  GI50: 0.421 µM
  TGI: > 100 µM
UACC-62 melanoma
  GI50: 1.64 µM
  TGI: > 100 µM
HCC-2998 colon
  GI50: 0.338 µM
  TGI: > 100 µM
SK-MEL-5 melanoma
  GI50: 0.201 µM
  TGI: 0.649 µM
HL-60(TB) leukemia
  GI50: 0.25 µM
  TGI: > 100 µM
KM12 colon
  GI50: 0.0944 µM
  TGI: 0.409 µM
